From PMC10222378 (Pharmaceuticals, 2023)
Where “and” joins values, the source holds several entries; their conditions need not be identical. Identical values can stand only once. Entries after “also recorded” stand apart in the source; their conditions may differ. Like-named read-outs stand apart in the source and are kept apart here.

Columns and labels:
hKV1.1 [1] = target: T1, hKV1.1 (Homo sapiens, UniProt Q09470); conditions: read-out: Kd (concentration of positive control equivalent to its Kd), no reference given; cited from earlier work
hKV1.3 [2] = target: T2, hKV1.3 (Homo sapiens, UniProt P22001); conditions: read-out: Kd (concentration of positive control equivalent to its Kd), no reference given; cited from earlier work
hKV1.5 = target: T3, hKV1.5 (Homo sapiens, UniProt P22460); test: Whole-cell patch clamp on hKV1.5 in CHO cells; type: cell-based; conditions: estimated from single concentration (200 μM), bimolecular interaction assumed, n = 4, read-out: estimated Kd
T3 construct: EYFP (pEYFP vector); expressed in transfected cells; host or cells: CHO cells, transient
Description: (§1) Pulses were delivered every 30 s. […] […]. Red dashed line indicates no effect.
(§2) In general, the holding potential was −120 mV.
(§3) […]. […] […].
(§4) […]. All data are presented as means ± SEM.

[3] = test system: hKV1.1, hKV1.4-IR, hKV1.5, hKV10.1, hKV11.1, hKCa3.1, hNaV1.4, hNaV1.5; test: in vitro; conditions: human
Method: (A–D) Currents were evoked from holding potentials of –100 mV by depolarizations to +50 mV for the time interval indicated on the panels. […] (E) hKV11.1 currents were measured with a voltage step from a holding potential of –80 mV to +20 mV, followed by a step to –40 mV, during which the peak current was measured. Pulses were delivered every 30 s. […] Red dashed line indicates no effect. Bars represent the mean of 3–8 independent measurements; error bars indicate the SEM.

hKV1.1 [4] = target: T1, hKV1.1; test: Whole-cell patch clamp on hKV1.1 in CHO cells; type: cell-based; design: host or cells: CHO cells, transient; conditions: estimated from single concentration (200 μM), bimolecular interaction assumed, n = 5, read-out: estimated Kd
Description: as §1, §2, §3, §4

hNaV1.4 = target: T4, hNaV1.4 (Homo sapiens, UniProt P35499); test: Whole-cell patch clamp on hNaV1.4 stably expressed in HEK293 cells; type: cell-based; conditions: estimated from single concentration (200 μM), bimolecular interaction assumed, n = 4, read-out: estimated Kd
T4 construct: expressed in transfected cells
Description: as §1, §2, §3, §4

hKV11.1 (hERG) = hKV11.1 (hERG) (Homo sapiens, UniProt Q12809); test: in vitro; conditions: HEK293 cells stably expressing hKV11.1 (hERG), pH 7.35
hKV1.4-IR = hKV1.4-IR (Homo sapiens, UniProt P22459); test: Whole-cell patch clamp on hKV1.4-IR in CHO cells; type: cell-based; conditions: estimated from single concentration (200 μM), bimolecular interaction assumed, n = 6, read-out: estimated Kd
Description: as §1, §2, §3, §4

hKCa3.1 = target: T5, hKCa3.1 (Homo sapiens, UniProt O15554); test: Whole-cell patch clamp on hKCa3.1 in CHO cells; type: cell-based
T5 construct: expressed in transfected cells; host or cells: CHO cells, transient
Description: as §1, §2, §3, §4

[5] = target: voltage-gated proton (H+) channel (HV1); design: method as in PMID 24912149; conditions: known HV1 inhibitor, value quoted in abstract; amphibian expression system; cited from earlier work
hKV1.3 [6] = target: T2, hKV1.3; test: Whole-cell patch clamp on hKV1.3 in activated human lymphocytes; type: cell-based; design: endogenous in cells
Description: The essential role of voltage-gated KV1.3 channels in T cell activation and proliferation is well-documented, so we tested whether the proliferation was suppressed in part via a KV1.3 blockade. […]. The open probability of the channel at +50 mV is maximal, and the relatively short duration of the depolarizing periods prevented inactivation. The time between voltage pulses was set to 15 s to avoid the cumulative inactivation of hKV1.3 channels. Under the given experimental conditions (i.e., the voltage protocol used and the lack of Ca^2+ in the pipette solution), the whole-cell currents were conducted exclusively by hKV1.3 channels. […]. Human peripheral blood […] (PBMCs) were isolated from venous blood obtained from anonymized healthy donors. The peripheral blood mononuclear cells were isolated by Histopaque1077 (Sigma-Aldrich Hungary, Budapest, Hungary) density gradient centrifugation. The cells obtained were resuspended in Roswell Park Memorial Institute (RPMI) 1640 medium (Gibco, Cat# 11875085) containing 10% fetal calf serum (FCS, Sigma-Aldrich, St. Louis, MO, USA), 100 μg/mL penicillin, 100 μg/mL streptomycin, and 2 mM L-glutamine, seeded in a 24-well culture plate at a density of 5–6 × 10^5 cells/mL, and grown in a 5% CO2 incubator at 37 °C for 3–5 days. Phytohemagglutinin A (PHA, Sigma-Aldrich, St. Louis, MO, USA) was also added at a concentration of 8–12 μg/mL to the medium to amplify the expression level of KV1.3. CHO cells and PBMCs were gently washed twice with 2 mL of ECS (see below) for the patch clamp experiments. hKV1.3 currents were recorded on activated lymphocytes 3 to 4 days after activation.
as §2, §3, §4
To examine the binding kinetics, RCF was plotted as a function of time. The association time constant (τon) was determined by fitting the data points with a single exponential function, RCF=RCF0×e^−t/τon+C where RCF0 is the RCF value before the addition of the drug, and C is a constant term.

hNaV1.5 = target: T6, hNaV1.5 (Homo sapiens, UniProt Q14524); test: Whole-cell patch clamp on hNaV1.5 in CHO cells; type: cell-based; conditions: estimated from single concentration (200 μM), bimolecular interaction assumed, n = 6, read-out: estimated Kd
T6 construct: expressed in transfected cells; host or cells: CHO cells, transient
Description: as §1, §2, §3, §4

human lymphocytes = test: CFSE lymphocyte proliferation assay after PHA activation; type: cell-based; conditions: 200 μM ClGBI
Method: In this method, following the loading of cells with CFSE dye, each round of cell division is apparent by the reduced dye content and consequent lower fluorescence intensity of the daughter cells. […] Peripheral blood mononuclear cells (PBMCs) were isolated from the heparinized blood of healthy donors (n = 3) using the Ficoll–Hypaque separation method. […] The cells were grown in a humidified chamber at 37 °C and 5% CO2 for 6 days. As a negative control, unstimulated CFSE-labeled PBMCs were cultured in the same condition. […] After 6 days of proliferation, the CFSE-labeled cells were collected and analyzed by flow cytometry in an ACEA NovoCyte 2000R cytometer (Agilent, Santa Clara, CA, USA).

hKV10.1 = target: T7, hKV10.1 (Homo sapiens, UniProt O95259); test: Whole-cell patch clamp on hKV10.1 in CHO cells; type: cell-based; conditions: estimated from single concentration (200 μM), bimolecular interaction assumed, n = 5, read-out: estimated Kd
T7 construct: host or cells: CHO cells, transient, co-transfected with a separate GFP plasmid
T7 sequence (O95259 1-989): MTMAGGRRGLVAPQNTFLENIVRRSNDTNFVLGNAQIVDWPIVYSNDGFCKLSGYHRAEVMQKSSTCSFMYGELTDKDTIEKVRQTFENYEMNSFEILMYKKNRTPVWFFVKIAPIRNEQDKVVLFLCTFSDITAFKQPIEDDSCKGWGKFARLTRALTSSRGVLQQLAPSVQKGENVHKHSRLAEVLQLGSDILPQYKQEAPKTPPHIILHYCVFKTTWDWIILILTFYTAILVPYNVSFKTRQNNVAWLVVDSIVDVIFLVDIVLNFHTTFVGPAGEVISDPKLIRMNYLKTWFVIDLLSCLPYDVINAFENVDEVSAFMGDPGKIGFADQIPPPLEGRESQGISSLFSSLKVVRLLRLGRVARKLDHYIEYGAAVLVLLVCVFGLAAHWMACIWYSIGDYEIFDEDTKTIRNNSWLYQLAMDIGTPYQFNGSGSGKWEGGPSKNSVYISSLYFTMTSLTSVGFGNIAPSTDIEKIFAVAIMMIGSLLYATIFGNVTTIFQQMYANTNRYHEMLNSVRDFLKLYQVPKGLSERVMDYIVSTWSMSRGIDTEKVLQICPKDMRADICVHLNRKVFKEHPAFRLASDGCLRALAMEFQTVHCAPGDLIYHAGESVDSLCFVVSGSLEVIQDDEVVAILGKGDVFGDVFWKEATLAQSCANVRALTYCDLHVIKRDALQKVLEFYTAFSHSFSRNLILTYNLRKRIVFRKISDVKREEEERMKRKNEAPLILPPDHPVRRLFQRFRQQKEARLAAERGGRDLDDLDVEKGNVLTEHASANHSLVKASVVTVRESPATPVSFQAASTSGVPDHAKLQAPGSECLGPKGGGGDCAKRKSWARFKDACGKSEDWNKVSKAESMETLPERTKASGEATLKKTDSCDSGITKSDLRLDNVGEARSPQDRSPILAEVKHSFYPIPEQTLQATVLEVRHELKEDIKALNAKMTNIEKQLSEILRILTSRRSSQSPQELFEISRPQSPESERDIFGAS
Description: as §1, §2, §3, §4

T2 sequence (P22001 whole entry): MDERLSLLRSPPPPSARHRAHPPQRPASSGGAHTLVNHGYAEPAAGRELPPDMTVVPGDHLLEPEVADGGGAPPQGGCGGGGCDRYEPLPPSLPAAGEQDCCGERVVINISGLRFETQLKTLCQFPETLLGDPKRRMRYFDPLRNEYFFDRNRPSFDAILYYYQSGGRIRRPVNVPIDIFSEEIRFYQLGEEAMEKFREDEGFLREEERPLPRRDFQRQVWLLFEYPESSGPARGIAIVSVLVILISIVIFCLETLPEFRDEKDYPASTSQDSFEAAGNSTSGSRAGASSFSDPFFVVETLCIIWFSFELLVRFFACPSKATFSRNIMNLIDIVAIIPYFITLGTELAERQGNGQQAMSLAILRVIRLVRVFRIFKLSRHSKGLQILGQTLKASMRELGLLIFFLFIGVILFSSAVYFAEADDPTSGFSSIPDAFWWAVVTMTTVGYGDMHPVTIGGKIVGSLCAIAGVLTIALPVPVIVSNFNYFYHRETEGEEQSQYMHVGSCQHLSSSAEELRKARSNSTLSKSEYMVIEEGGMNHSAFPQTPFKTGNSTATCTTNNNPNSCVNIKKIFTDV
T1 sequence (Q09470 whole entry): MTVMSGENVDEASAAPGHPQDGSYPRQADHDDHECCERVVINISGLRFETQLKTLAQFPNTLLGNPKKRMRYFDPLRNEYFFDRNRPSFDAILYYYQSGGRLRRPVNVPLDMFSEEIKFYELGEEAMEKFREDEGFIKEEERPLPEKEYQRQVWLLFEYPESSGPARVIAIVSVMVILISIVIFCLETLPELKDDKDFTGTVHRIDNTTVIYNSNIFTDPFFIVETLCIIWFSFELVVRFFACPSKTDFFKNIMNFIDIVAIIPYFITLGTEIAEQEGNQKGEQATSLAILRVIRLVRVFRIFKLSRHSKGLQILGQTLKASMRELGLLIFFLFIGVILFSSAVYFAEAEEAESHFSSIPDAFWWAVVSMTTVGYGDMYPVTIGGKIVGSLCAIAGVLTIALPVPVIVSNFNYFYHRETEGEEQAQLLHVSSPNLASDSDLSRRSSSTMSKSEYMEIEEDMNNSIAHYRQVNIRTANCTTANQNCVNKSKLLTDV
T4 sequence (P35499 whole entry): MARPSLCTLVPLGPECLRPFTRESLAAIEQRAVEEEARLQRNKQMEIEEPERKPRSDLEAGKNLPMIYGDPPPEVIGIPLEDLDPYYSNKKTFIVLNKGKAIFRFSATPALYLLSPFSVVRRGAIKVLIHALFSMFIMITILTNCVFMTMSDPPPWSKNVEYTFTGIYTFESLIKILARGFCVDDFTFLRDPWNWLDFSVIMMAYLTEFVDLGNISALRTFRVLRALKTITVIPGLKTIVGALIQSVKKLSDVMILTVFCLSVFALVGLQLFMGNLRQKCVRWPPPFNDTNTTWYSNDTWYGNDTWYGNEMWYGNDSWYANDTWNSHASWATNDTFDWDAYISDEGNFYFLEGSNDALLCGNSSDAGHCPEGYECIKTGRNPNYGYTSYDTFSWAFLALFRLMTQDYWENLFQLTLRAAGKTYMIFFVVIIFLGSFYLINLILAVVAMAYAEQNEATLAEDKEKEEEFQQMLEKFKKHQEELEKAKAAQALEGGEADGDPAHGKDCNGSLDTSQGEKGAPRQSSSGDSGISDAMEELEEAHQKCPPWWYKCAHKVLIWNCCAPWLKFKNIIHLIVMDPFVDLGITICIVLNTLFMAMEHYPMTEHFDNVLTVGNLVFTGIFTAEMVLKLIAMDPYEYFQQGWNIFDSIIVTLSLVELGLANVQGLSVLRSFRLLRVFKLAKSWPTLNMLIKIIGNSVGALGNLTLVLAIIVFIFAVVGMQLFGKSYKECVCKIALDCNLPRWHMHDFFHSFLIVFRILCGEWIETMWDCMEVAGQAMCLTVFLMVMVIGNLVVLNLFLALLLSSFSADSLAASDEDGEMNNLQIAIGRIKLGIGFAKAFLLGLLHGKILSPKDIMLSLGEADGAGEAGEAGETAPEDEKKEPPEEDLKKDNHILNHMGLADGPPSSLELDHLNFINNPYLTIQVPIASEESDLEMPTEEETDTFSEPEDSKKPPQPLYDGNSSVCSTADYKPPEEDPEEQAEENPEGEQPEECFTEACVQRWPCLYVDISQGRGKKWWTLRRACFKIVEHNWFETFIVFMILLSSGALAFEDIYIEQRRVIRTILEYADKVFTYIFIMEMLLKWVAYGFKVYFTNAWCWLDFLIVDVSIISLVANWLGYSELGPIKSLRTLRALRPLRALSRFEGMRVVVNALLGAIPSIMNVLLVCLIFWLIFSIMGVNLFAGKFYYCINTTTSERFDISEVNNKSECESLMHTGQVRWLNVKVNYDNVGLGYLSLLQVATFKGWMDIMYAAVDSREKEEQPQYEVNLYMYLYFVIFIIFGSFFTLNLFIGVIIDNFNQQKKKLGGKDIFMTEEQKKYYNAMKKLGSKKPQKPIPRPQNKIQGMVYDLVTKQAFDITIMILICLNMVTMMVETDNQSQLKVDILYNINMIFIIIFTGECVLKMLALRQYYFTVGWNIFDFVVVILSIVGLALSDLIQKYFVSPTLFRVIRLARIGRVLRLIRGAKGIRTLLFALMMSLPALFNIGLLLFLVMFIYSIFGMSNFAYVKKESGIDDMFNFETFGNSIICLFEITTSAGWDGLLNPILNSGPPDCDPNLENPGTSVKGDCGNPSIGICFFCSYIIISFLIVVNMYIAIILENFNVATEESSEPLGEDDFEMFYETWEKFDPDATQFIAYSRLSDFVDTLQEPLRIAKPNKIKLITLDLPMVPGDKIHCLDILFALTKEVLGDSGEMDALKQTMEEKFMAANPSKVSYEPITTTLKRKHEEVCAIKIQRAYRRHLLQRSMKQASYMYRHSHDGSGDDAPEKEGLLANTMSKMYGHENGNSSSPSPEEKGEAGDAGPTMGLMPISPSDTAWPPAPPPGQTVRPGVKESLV
Sequence of hKV1.4-IR (P22459 149-653 limits assumed): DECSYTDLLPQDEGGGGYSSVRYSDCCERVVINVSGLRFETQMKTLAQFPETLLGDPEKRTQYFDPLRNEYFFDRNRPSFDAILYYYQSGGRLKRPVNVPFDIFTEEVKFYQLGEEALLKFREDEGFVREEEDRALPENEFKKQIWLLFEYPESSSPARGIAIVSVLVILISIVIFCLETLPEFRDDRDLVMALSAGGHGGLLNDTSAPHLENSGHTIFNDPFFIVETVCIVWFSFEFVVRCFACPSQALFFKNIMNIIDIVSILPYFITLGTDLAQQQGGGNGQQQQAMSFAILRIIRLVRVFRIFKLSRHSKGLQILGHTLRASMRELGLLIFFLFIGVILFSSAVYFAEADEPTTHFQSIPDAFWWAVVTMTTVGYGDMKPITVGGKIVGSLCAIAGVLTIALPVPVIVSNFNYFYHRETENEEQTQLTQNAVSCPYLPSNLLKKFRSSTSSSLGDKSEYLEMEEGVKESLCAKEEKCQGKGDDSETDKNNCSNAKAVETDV
Sequence of hKV11.1 (hERG) (Q12809 whole entry): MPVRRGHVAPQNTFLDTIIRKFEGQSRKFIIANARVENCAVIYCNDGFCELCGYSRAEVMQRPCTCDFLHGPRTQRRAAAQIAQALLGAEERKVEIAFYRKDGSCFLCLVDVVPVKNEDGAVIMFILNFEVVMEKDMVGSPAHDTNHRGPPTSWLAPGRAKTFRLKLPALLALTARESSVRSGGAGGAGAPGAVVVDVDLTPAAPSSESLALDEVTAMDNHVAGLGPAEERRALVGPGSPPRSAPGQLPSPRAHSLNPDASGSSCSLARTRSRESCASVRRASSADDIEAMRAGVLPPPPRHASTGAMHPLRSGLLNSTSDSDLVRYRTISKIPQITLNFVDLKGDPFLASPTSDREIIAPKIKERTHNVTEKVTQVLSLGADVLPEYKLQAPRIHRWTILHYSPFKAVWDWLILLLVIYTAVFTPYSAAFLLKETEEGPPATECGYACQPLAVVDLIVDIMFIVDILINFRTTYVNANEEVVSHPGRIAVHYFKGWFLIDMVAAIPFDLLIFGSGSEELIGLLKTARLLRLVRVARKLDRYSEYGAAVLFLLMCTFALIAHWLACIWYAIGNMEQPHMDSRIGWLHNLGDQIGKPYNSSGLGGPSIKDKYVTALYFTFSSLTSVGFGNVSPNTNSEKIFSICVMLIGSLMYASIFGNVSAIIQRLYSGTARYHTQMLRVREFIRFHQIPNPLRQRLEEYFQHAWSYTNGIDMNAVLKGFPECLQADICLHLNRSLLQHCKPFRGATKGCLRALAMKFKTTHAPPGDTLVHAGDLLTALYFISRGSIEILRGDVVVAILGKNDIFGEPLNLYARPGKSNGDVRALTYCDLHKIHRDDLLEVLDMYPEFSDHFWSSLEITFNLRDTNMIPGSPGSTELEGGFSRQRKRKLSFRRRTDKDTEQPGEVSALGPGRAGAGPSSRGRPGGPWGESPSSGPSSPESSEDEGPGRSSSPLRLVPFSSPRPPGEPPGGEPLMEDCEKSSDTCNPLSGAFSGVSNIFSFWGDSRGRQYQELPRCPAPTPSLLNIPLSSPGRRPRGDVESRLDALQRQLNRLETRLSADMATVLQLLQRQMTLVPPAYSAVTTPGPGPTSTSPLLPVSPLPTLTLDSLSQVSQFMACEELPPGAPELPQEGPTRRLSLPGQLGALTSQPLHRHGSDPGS

**Q.** Which Kd (hKV1.1 [1]) does the source give for `CC[N+](CC)(CC)CC` [TEA^+, tetraethylammonium] here?
**A.** 300 µM

**Q.** What about the Kd (hKV1.3 [2]) of the same compound?
**A.** 10000 µM

**Q.** For `N=C(N)Nc1nc2ccc(Cl)cc2[nH]1` [ClGBI, 5-chloro-2-guanidinobenzimidazole], which potency estimated from few doses (hKV1.5) is on record?
**A.** 310 ± 43.6 µM

**Q.** What about the Kd [3] of the same compound?
**A.** 12 to 894 µM

**Q.** And the potency estimated from few doses (hKV1.1 [4])?
**A.** 324 ± 13.1 µM

**Q.** And the potency estimated from few doses (hNaV1.4)?
**A.** 591 ± 123 µM

**Q.** And the potency estimated from few doses (hKV11.1 (hERG))?
**A.** 12 ± 2.1 µM

**Q.** And the potency estimated from few doses (hKV1.4-IR)?
**A.** 188 ± 38 µM

**Q.** What about the “inhibition of KCa3.1” value (hKCa3.1; 200 μM ClGBI) of the same compound?
**A.** inhibited KCa3.1 to a small extent

**Q.** And the potency estimated from few doses (hKCa3.1; CHO, estimated from single concentration (200 μM), bimolecular interaction assumed, n = 5, read-out: estimated Kd)?
**A.** 894 ± 134 µM

**Q.** What about the Kd [5] of the same compound?
**A.** ~26 µM

**Q.** What about the “time to reach block saturation” value (hKV1.3 [6]; 200 μM ClGBI) of the same compound?
**A.** 50 to 100 s

**Q.** What about the “reduction in current amplitude” value (hKV1.3 [6]; 200 μM ClGBI, equilibrium block) of the same compound?
**A.** ~ 75%

**Q.** And the “remaining current fraction (RCF)” value (hKV1.3 [6]; 200 μM ClGBI, equilibrium block, n = 9)?
**A.** 0.25 ± 0.01

**Q.** What about the “association time constant τon” value (hKV1.3 [6]; 200 μM ClGBI, single exponential fit, n = 3) of the same compound?
**A.** 22.1 ± 2.7 s

**Q.** And the “reversibility of block on washout” value (hKV1.3 [6]; after 200 μM ClGBI, perfusion with ClGBI-free ECS)?
**A.** complete recovery from block; also recorded: complete recovery from current inhibition

**Q.** And the “Hill coefficient nH” value (hKV1.3 [6]; two-parameter Hill fit of RCF dose-response)?
**A.** 1.1 ± 0.07

**Q.** What about the Kd (hKV1.3 [6]; two-parameter Hill fit of RCF dose-response, human lymphocytes) of the same compound?
**A.** 72.4 µM and ~72 µM

**Q.** And the potency estimated from few doses (hNaV1.5)?
**A.** 187 ± 35.7 µM

**Q.** And the “effect on lymphocyte proliferation” value (human lymphocytes)?
**A.** completely blocked; also recorded: significant suppression

**Q.** What about the potency estimated from few doses (hKV10.1) of the same compound?
**A.** 77.5 ± 14.2 µM
